In patent publication US20100172889A1, “DEGRADABLE BIOMOLECULE COMPOSITIONS” (priority 2008, published 2010):

System: cellulase C
Details: PHMB present in lyophilized cellulose film with cellulase C
Method: Two test materials (A and B) were prepared. Material A is a lyophilized cellulose film with cellulase C, and material B is a lyophilized cellulose film with cellulase C plus antiseptic Polyhexamethylene Biguanide (PHMB). Lyophilized cellulose samples A and B were incubated under conditions 1 and 2 for one month. Using media of tryptic soy agar, the samples were put in the solution to perform enzymatic degradation. On the 2nd, 8th, and 14th day, the degrading solution was taken out and plated on the agar media. The agar media plates were incubated for one month according to condition 3.

Polyhexamethylene Biguanide [PHMB]
reduction in cellulase enzyme activity: no observable reduction in cellulase enzyme activity
